{"source": "patent US7834030B2", "about": "“Phenyl-[1,2,4]-oxadiazol-5-one derivatives, pharmaceutical compositions and therapeutic use thereof” (Sanofi-Aventis, priority 2005, dated 2010)", "origin": "cited, not measured here", "key": {"[1]": {"settings": "diabetic animal model; cited from earlier work"}, "[2]": {"settings": "obese, insulin resistant rhesus monkeys; cited from earlier work"}, "[3]": {"settings": "rhesus monkeys; cited from earlier work"}, "[4]": {"settings": "cynomolgus monkeys; cited from earlier work"}, "[5]": {"settings": "healthy volunteers, two weeks clinical trials; cited from earlier work"}}, "note": "Where two headings read alike, the source gives them in different places.", "data": [{"smiles": "CCCc1c(OCCCOc2ccc(OCC(=O)O)cc2)ccc(C(C)=O)c1O", "note": "[Example L-165041]", "values": [{"measurement": "plasma cholesterol", "setting": "[1]", "value": "raises plasma cholesterol"}]}, {"smiles": "Cc1cc(SCc2sc(-c3ccc(C(F)(F)F)cc3)nc2C)ccc1OCC(=O)O", "note": "[GW501516]", "values": [{"measurement": "HDL-cholesterol", "setting": "[2]", "value": "raises"}, {"measurement": "insulin levels", "setting": "[2]", "value": "decreases"}, {"measurement": "plasma LDL-cholesterol", "setting": "[2]", "value": "decreases"}, {"measurement": "triglycerides", "setting": "[2]", "value": "decreases"}]}, {"smiles": "CCCc1c(OCCCSc2nnc(SCC(=O)O)s2)ccc(C(C)=O)c1O", "note": "[YM-16638]", "values": [{"measurement": "plasma lipids", "setting": "[3]", "value": "significantly lowers"}, {"measurement": "plasma lipids", "setting": "[4]", "value": "significantly lowers"}, {"measurement": "plasma lipids", "setting": "[5]", "value": "acts in a similar manner"}]}]}
